The supplement of paper PMC5908809

Assays:
[1] = tested on: normal NK cells expanded with K562-aAPC; test: percent inhibition of viability; higher = more inhibition; conditions: 72 h, IL-2 2.5 ng/mL
Method: (§1)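 Drug sensitivity and resistance testing on K562-aAPC-expanded normal NK cells: 5 concentrations (10-fold steps over a 10,000-fold range), 72 h at 37 °C, viability by CellTiter-Glo normalised to DMSO and benzethonium chloride controls; DSS from the fitted curve.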

[2] = tested on: DERL-7 (IL-2 2.5 ng/mL); test: as above; conditions: 72 h
[3] = tested on: IMC-1 (IL-2 20 ng/mL); test: as above; conditions: 72 h
[4] = tested on: KAI3 (IL-2 2.5 ng/mL); test: as above; conditions: 72 h
[5] = tested on: KHYG-1 (IL-2 2.5 ng/mL); test: as above; conditions: 72 h
[6] = tested on: NK-92 (IL-2 2.5 ng/mL); test: as above; conditions: 72 h
[7] = tested on: NK-YS (IL-2 2.5 ng/mL); test: as above; conditions: 72 h
[8] = tested on: NKL (IL-2 2.5 ng/mL); test: as above; conditions: 72 h
[9] = tested on: SNK-6 (IL-2 2.5 ng/mL); test: as above; conditions: 72 h
[10] = tested on: YT (IL-2 2.5 ng/mL); test: as above; conditions: 72 h
[11] = tested on: normal primary NK cells, pool 1 (3 donors) (IL-2 2.5 ng/mL); test: as above; conditions: 72 h
[12] = tested on: normal primary NK cells, pool 1 (3 donors), resting (IL-2 0 ng/mL); test: as above; conditions: 72 h
[13] = tested on: normal primary NK cells, pool 2 (3 donors) (IL-2 2.5 ng/mL); test: as above; conditions: 72 h
[14] = tested on: normal primary NK cells, pool 3 (3 donors) (IL-2 2.5 ng/mL); test: as above; conditions: 72 h
[15] = tested on: normal NK cells expanded with K562-aAPC; test: drug sensitivity score (DSS) (DSS units); higher = more sensitive; extreme values may be limits of the assay; conditions: 72 h; IL-2 2.5 ng/mL
Method: as §1

[16] = tested on: DERL-7 (IL-2 2.5 ng/mL); test: as above; conditions: 72 h
[17] = tested on: IMC-1 (IL-2 20 ng/mL); test: as above; conditions: 72 h
[18] = tested on: KAI3 (IL-2 2.5 ng/mL); test: as above; conditions: 72 h
[19] = tested on: KHYG-1 (IL-2 2.5 ng/mL); test: as above; conditions: 72 h
[20] = tested on: NK-92 (IL-2 2.5 ng/mL); test: as above; conditions: 72 h
[21] = tested on: NK-YS (IL-2 2.5 ng/mL); test: as above; conditions: 72 h
[22] = tested on: NKL (IL-2 2.5 ng/mL); test: as above; conditions: 72 h
[23] = tested on: SNK-6 (IL-2 2.5 ng/mL); test: as above; conditions: 72 h
[24] = tested on: YT (IL-2 2.5 ng/mL); test: as above; conditions: 72 h
[25] = tested on: normal primary NK cells, pool 1 (3 donors) (IL-2 2.5 ng/mL); test: as above; conditions: 72 h
[26] = tested on: normal primary NK cells, pool 1 (3 donors), resting (IL-2 0 ng/mL); test: as above; conditions: 72 h
[27] = tested on: normal primary NK cells, pool 2 (3 donors) (IL-2 2.5 ng/mL); test: as above; conditions: 72 h
[28] = tested on: normal primary NK cells, pool 3 (3 donors) (IL-2 2.5 ng/mL); test: as above; conditions: 72 h

CN(C)c1cc2c(cc1Sc1nc3c(N)nccc3n1CCNCC(C)(C)C)OCO2 [CUDC-305] (max concentration tested 10000 nM)
percent inhibition of viability [%]
Conditions | 1 nM | 10 nM | 100 nM | 1000 nM | 10000 nM
[1] | -9.36 | -5.57 | 18.3 | 98.9 | 99.5
[2] | -1.72 | -0.9 | 22.4 | 101 | 101
[3] | -5.61 | -0.06 | 1.88 | 100 | 101
[4] | -0.9 | -0.19 | 41.5 | 108 | 108
[5] | -1.89 | -3.69 | 6.61 | 107 | 111
[6] | -12 | -2.97 | 13.8 | 103 | 107
[7] | -4.26 | -6.26 | 23.7 | 108 | 109
[8] | -12.3 | -13.6 | 3.23 | 97.1 | 95.2
[9] | -24.7 | -25.3 | -1.59 | 89.5 | 89.3
[10] | -8.17 | -8.94 | 5.06 | 96.3 | 102
[11] | 3.05 | 11.3 | 19.7 | 84.3 | 92.8
[12] | -0.67 | 17.6 | 27.6 | 43.1 | 69.2
[13] | -9.1 | 7.74 | 23 | 77.7 | 86.7
[14] | -11.7 | 2.98 | 12 | 77.3 | 88.5

Conditions | drug sensitivity score
[15] | 20.9
[16] | 21.5
[17] | 18.2
[18] | 23.5
[19] | 19.4
[20] | 20.4
[21] | 21.7
[22] | 17.9
[23] | 16
[24] | 18.2
[25] | 17.8
[26] | 12.7
[27] | 17
[28] | 15.8

C=CC(=O)Nc1cc2c(Nc3ccc(F)c(Cl)c3)ncnc2cc1OCCCN1CCOCC1 [Canertinib] (max concentration tested 10000 nM)
percent inhibition of viability [%]
Conditions | 1 nM | 10 nM | 100 nM | 1000 nM | 10000 nM
[1] | -1.69 | -1.95 | -1.57 | 28.3 | 100
[2] | -1.22 | 3.31 | 7.19 | 46.1 | 101
[3] | -13.9 | -4.18 | -9.88 | -11.9 | 99.7
[4] | -7.79 | -2.37 | 3.26 | 43.7 | 104
[5] | -9.72 | -6.52 | -7.64 | 4.13 | 105
[6] | 3.42 | 2.68 | 6.81 | 39.8 | 104
[7] | -6.82 | -1.19 | -0.2 | 14.6 | 103
[8] | -12.1 | -11.6 | -5.5 | 34.5 | 106
[9] | -13 | -20.2 | -15.9 | 2.62 | 99.5
[10] | -5.49 | -3.57 | 3.25 | 14.8 | 103
[11] | -5.89 | 6.82 | 13.3 | 76.1 | 99.2
[12] | 2.65 | 15.7 | 18.4 | 74.2 | 97
[13] | -7.41 | -1.65 | 8.39 | 58.4 | 96.8
[14] | -4.75 | 1.46 | 0.7 | 34.3 | 99.2

Conditions | drug sensitivity score
[15] | 9.72
[16] | 10.9
[17] | 4.78
[18] | 11.2
[19] | 6.47
[20] | 10.8
[21] | 8.03
[22] | 10.3
[23] | 5.87
[24] | 8.07
[25] | 15.9
[26] | 16.2
[27] | 12.6
[28] | 10.3
